Reference: ChEMBL document CHEMBL1201862, “PubChem BioAssay data set” (2004)
Activity calls are given as the source filed them.

What was measured:
[1] = target: T1, Short transient receptor potential channel 4 (Mus musculus, UniProt Q9QUQ5); test: mouse TRPC4 channel inhibitors, dose response, cell-based, HEK293 TRPC4/mu-opioid, Fluo-4 calcium (AID 434942); type: functional;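 further: potency of inhibitors blocking the TRPC4 calcium response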
T1 sequence (Q9QUQ5 whole entry): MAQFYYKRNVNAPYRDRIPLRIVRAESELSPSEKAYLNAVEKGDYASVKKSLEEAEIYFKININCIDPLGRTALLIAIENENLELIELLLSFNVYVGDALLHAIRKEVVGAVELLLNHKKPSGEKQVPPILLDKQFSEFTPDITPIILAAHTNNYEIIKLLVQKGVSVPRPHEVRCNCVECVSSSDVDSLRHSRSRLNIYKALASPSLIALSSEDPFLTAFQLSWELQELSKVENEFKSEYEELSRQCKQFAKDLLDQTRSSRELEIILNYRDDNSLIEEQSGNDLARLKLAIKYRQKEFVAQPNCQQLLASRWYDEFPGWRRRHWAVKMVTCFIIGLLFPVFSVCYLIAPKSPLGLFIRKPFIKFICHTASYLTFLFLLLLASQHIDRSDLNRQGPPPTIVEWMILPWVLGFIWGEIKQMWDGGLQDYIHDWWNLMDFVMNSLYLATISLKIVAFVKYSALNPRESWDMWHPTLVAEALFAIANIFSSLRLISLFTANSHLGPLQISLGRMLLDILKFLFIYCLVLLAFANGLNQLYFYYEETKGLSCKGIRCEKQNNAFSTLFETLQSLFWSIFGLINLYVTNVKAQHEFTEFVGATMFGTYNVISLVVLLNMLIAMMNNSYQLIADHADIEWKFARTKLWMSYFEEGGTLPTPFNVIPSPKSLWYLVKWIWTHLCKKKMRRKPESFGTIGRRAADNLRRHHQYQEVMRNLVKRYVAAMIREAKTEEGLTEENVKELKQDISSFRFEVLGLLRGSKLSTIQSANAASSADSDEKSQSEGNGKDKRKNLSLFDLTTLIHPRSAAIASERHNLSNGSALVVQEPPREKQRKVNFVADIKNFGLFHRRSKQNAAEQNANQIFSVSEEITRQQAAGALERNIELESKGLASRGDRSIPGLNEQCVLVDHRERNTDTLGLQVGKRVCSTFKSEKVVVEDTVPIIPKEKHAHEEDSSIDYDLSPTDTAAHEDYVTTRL

BJ = test: cytotoxicity toward BJ-TERT fibroblasts, dose response, cell-based, RAS-independent, luminescence (AID 1933); type: functional; conditions: Homo sapiens
[2] = target: T2, Histone-lysine N-methyltransferase NSD2 (Homo sapiens, UniProt O96028); type: biochemical
T2 sequence (O96028 whole entry): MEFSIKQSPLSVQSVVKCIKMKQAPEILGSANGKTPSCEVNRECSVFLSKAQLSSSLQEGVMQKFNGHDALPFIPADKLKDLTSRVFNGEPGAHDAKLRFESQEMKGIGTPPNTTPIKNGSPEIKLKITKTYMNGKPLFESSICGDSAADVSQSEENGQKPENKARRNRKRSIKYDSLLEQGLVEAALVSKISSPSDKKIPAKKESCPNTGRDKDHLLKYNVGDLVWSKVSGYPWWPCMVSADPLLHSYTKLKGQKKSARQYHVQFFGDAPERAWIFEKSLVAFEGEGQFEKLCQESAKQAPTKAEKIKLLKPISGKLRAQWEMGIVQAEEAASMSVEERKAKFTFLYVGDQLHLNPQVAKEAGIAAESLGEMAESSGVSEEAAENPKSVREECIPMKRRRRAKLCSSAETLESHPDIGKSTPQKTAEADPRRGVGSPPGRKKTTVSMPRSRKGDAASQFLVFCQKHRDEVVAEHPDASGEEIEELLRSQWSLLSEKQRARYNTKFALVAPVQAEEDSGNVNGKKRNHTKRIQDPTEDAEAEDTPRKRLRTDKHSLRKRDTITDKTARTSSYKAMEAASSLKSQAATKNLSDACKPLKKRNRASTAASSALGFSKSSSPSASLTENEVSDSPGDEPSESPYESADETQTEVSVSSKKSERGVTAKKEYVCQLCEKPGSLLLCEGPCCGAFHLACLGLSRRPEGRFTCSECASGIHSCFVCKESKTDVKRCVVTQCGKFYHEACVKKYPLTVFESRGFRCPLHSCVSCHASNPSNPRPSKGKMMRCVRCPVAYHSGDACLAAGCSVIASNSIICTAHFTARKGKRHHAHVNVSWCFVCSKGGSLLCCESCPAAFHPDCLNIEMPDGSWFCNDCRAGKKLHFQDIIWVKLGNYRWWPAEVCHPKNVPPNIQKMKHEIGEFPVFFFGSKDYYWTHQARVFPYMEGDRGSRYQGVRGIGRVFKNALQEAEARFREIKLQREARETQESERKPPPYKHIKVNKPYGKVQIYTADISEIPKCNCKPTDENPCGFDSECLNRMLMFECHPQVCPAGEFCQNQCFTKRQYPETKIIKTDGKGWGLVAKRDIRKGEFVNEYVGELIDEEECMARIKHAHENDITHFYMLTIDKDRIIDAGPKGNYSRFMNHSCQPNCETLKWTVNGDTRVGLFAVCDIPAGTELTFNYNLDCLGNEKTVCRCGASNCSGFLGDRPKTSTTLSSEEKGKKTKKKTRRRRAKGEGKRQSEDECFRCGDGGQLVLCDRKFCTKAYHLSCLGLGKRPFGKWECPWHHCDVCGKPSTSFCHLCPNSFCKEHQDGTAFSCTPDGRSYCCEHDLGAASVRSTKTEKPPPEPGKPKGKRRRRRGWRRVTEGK

SMILES | EC50 [1] | EC50 (BJ) | AC50 [2]
Cc1nn(-c2ccccc2)c(Cl)c1CN(C(=O)CCl)c1ccc(Cl)cc1 | 0.237 µM (active) | 0.707 µM (inconclusive) | 
Cc1cccc(N=Nc2ccc(N(C)C)cc2)c1 |  |  | 14.2 µM (active)
